{"source": "paper PMC5866846", "about": "(Archives of Toxicology, 2017)", "key": {"CYP2C19": {"target": "CYP2C19 (Homo sapiens, UniProt P33261)", "sequence (P33261 whole entry)": "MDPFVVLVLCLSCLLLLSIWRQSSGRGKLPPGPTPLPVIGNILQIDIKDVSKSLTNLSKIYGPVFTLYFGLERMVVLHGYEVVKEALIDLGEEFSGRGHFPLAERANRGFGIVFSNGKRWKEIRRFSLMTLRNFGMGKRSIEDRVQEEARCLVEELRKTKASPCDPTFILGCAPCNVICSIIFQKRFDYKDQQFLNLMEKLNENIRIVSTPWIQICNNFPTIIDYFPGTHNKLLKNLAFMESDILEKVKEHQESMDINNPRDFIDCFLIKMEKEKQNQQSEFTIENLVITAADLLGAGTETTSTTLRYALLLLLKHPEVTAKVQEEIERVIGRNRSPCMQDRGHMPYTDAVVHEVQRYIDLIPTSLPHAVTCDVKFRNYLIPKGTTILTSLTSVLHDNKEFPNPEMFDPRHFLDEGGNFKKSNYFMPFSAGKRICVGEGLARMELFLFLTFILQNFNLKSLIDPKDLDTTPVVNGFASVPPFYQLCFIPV", "assay": "Inhibition of CYP2C19 activity in HLM", "format": "in vitro ADME", "conditions": "human, human liver microsomes, 200 nM to 10 µM, 10 min pre-incubation"}, "SLC10A1 gene expression": {"tested_on": "SLC10A1 gene expression", "assay": "SLC10A1 gene expression in upcyte hepatocytes (Fluidigm RT-PCR)", "format": "cell-based, human", "conditions": "5 µM, 72 h, both cell strains", "excerpt": "(§1) Differences between induced and control samples were compared using Welch’s t-test (GraphPad Prism, version 5.04), when the fold-change was considered biologically relevant (1.5-fold increase or decrease in fold-changes) and corrected for multiple testing according to Bonferroni. […] An unpaired t-test assuming unequal variances was used for testing of differences in the expression patterns, when the fold-change was considered biologically relevant (1.5-fold increase or decrease in fold-changes) and corrected using Bonferroni adjustments."}, "CYP3A4": {"tested_on": "CYP3A4", "assay": "CYP3A4 activity in upcyte hepatocytes after treatment (probe substrate cocktail)", "conditions": "5 µM, 72 h, parental and derived cell line", "method": "(§2) Cells were cultivated in hepatocyte culture medium at 37 °C and 5 °% CO2 in a humidified incubator. Before starting experiments, cells were cultivated in hepatocyte culture medium containing 0.5% (v/v) DMSO (Preculture medium) for 5 days (density of 0.8 × 10^4 cells/cm^2) and were subcultivated in high-performance medium containing 0.1% (v/v) DMSO (Metabolism conditioning medium) for 3–5 days (density of 1.6 × 10^5 cells/cm^2, confluence). The medium was replaced every 2–3 days.\n(§3) In HLM and supersome™ incubations the formation rate is given as nmol µg^−1 min^−1 and fmol pmol^−1 min^−1, respectively, and was calculated as the mean ± SD. […] The intrinsic Clearance (Clint) was given as Vmax/Km ratio. […] Activity of CYP enzymes in induction assays is given as the fold-change (mean ± SD) compared to the corresponding DMSO-treated control. […] Gene expression patterns of treated cells are given as fold-change compared to the corresponding DMSO-treated control samples, as described above. […] In induction and inhibition experiments corresponding EC50 and IC50 values were calculated by nonlinear regression. In all experiments a level of probability (p) ≤ 0.05 for statistical testing was considered significant.\n(§4) As control 0.05 % DMSO was used. The basal CYP activity and induction of CYP activity compared to the DMSO control were measured via HPLC-ESI-MS/MS."}, "CYP3A4 gene expression": {"tested_on": "CYP3A4 gene expression", "assay": "CYP3A4 gene expression in upcyte hepatocytes (Fluidigm RT-PCR)", "conditions": "5 µM, 72 h, both cell strains", "excerpt": "Total RNA was isolated from cells using the Direct-zol™ RNA MiniPrep kit (Zymo Research Corp., Irvine, California). cDNA was synthesized using TaqMan Reverse Transcription Reagents (Life technologies, Applera GmbH, Darmstadt, Germany) and the expression of 25 genes representative of phase I and phase II drug metabolism and transport was quantified by Fluidigm’s BioMark HD high-throughput quantitative chip platform (Fluidigm Corporation, San Francisco, USA). For relative gene expression analysis, the delta-delta-Ct (ΔΔCt) method was used: the Ct values of the target mRNA were first normalized to those of the endogenous control glyceraldehyde-3-phosphate dehydrogenase (GAPDH) followed by dividing values of experimental samples by their corresponding DMSO-treated controls to calculate the x-fold changes of mRNA expression.\nas §3, §4"}, "CYP2A6 gene expression": {"tested_on": "CYP2A6 gene expression", "assay": "CYP2A6 gene expression in upcyte hepatocytes (Fluidigm RT-PCR)", "format": "cell-based, human", "conditions": "5 µM, 72 h, both cell strains", "excerpt": "as §1"}, "CYP2C8 [1]": {"target": "T1, CYP2C8 (Homo sapiens, UniProt P10632)", "T1 sequence (P10632 1-490)": "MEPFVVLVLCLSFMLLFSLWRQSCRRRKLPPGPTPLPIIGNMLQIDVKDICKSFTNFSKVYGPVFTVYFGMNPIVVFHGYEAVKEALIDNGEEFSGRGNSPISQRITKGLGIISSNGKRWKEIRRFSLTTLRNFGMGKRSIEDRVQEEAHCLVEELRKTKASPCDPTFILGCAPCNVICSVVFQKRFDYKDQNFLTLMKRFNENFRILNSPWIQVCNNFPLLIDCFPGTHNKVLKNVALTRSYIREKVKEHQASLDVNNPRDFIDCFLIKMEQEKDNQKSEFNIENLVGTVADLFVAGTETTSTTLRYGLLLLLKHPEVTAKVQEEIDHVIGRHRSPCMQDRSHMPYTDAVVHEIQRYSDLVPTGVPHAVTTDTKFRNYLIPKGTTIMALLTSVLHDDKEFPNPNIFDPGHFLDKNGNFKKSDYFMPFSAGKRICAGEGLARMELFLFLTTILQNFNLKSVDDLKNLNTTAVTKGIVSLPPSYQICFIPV", "assay": "CYP2C8 activity in upcyte hepatocytes after treatment (probe substrate cocktail)", "format": "cell-based", "parameters": "host or cells: upcyte hepatocytes 653-03 and 653-03 #138 (653-03 2D6)", "conditions": "human, upcyte hepatocytes 653-03 and 653-03 2D6, probe amodiaquine 5 µM, 5 µM, both cell lines", "method": "as §2, §3, §4"}, "CYP2C8 [2]": {"target": "T1, CYP2C8", "assay": "Inhibition of CYP2C8 activity in HLM", "format": "in vitro ADME", "conditions": "200 nM to 10 µM, 10 min pre-incubation"}, "CYP2C9": {"target": "CYP2C9 (Homo sapiens, UniProt P11712)", "sequence (P11712 whole entry)": "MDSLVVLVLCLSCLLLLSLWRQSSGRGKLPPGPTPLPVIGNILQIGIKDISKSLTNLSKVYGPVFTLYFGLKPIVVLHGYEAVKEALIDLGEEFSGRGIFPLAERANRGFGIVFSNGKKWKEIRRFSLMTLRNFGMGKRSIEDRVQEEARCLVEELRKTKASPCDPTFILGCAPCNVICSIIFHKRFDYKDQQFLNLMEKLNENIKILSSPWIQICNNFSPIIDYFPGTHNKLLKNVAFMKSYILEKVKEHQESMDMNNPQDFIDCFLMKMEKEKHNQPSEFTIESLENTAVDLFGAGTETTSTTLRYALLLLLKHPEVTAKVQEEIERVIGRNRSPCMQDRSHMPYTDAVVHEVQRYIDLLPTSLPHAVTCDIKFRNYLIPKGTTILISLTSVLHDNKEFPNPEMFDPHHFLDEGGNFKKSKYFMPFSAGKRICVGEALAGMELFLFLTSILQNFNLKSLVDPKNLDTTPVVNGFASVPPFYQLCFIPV", "assay": "Inhibition of CYP2C9 activity in HLM", "format": "in vitro ADME", "conditions": "human, human liver microsomes, 200 nM to 10 µM, 10 min pre-incubation"}, "[3]": {"tested_on": "upcyte hepatocytes 653-03 2D6", "assay": "Tam metabolism in upcyte hepatocytes 653-03 2D6, metabolites in culture medium", "format": "in vitro ADME, human", "conditions": "cells incubated with 1 µM Tam up to 144 h", "method": "The medium was replaced every 2–3 days. […].\nThe culture medium was collected after 24, 48, 72, 96 and 144 h followed by metabolite measurements using HPLC-ESI-MS/MS.\nProtein was precipitated by the addition of ACN containing 1% of acetic acid and the corresponding deuterated internal standards to the same volume of the sample followed by centrifugation at 20.000 g for 15 min at RT. […] Analytes were separated on a Zorbax Eclipse Plus C18 column (1.8 µm, 100 × 2.1 mm, Agilent technologies) and detected on a 6460 triple quadrupole mass spectrometer (Agilent technologies) in positive ESI MRM mode. Glucuronides of estrogen-like metabolites were detected separately via MS/MS-measurements in negative ESI MRM mode.\n[…]. […] […]."}}, "data": [{"compound": "CC/C(=C(\\c1ccc(O)cc1)c1ccc(OCCN(C)C)cc1)c1ccccc1", "note": "[4OH-Tam, (Z)-4-Hydroxytamoxifen]", "values": [{"measurement": "IC50 at 15 min", "setting": "CYP2C19", "value": "> 10", "unit": "µM"}, {"measurement": "SLC10A1 gene expression, downregulation (fold lower)", "setting": "SLC10A1 gene expression", "value": "up to twofold"}, {"measurement": "induction of CYP3A4 activity compared to DMSO control", "setting": "CYP3A4", "value": "up to 2.1 fold"}, {"measurement": "CYP3A4 gene expression, induction vs DMSO control", "setting": "CYP3A4 gene expression", "value": "up to 5.6 fold"}, {"measurement": "CYP2A6 gene expression, downregulation", "setting": "CYP2A6 gene expression", "value": "up to twofold"}, {"measurement": "inhibition at 72 h, 5 µM", "setting": "CYP2C8 [1]", "value": "≤ 90", "unit": "%"}, {"measurement": "IC50", "setting": "CYP2C8 [2]", "value": "> 10", "unit": "µM"}, {"measurement": "IC50 of CYP2C8 activity", "setting": "CYP2C8 [2]", "value": "only minor inhibition"}, {"measurement": "IC50 at 15 min", "setting": "CYP2C9", "value": "> 10", "unit": "µM"}, {"measurement": "concentration in the supernatant of 653-03 2D6 cells relative to parental cells", "setting": "[3]", "value": "up to 20 times"}]}]}
